In this assay the target is PDE10A (UniProt Q9Y233). Kind of assay: PDE10 enzyme inhibition, IMAP TR-FRET assay (Example A, MPDE10A7 Enzyme Activity and Inhibition). The assay is classed as biochemical. The following applies: approximate IC50 value, Table 10. The method in brief: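 Compounds were preincubated 60 min at room temperature with PDE10A enzyme or tissue homogenate, then fluorescein-labeled cAMP or cGMP was added for 90 min. After stopping with IMAP binding reagents, TR-FRET was read and IC50s were fitted with a four-parameter logistic equation.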
A general note: Time-resolved FRET reads energy transfer from a long-lived donor to a nearby acceptor.

By IC50 is commonly meant the concentration that gives 50% inhibition. Low readings indicate higher potency, high ones lower potency. In turn, `CC1(C)C(=O)N([C@H]2C[C@H](Nc3nc4cc(F)c(F)cc4s3)C2)c2nccnc21` [Example 169, 5-(trans-3-((5,6-difluorobenzo[d]thiazole-2-yl)amino)cyclobutyl)7,7-dimethyl-5H-pyrrolo-[2,3-b]pyrazin-6(7 H)-one] returned an IC50 of 0.416 nM.
As for `CC1(C)C(=O)N([C@H]2C[C@H](Nc3nc4c(F)cc(F)cc4s3)C2)c2nccnc21` [Example 170, 5-(trans-3-((4,6-difluorobenzo[d]thiazole-2-yl)amino)cyclobutyl)-7,7-dimethyl-5H-pyrrolo-[2,3-b]pyrazin-6(714)-one], the IC50 turned out to be 2.71 nM.
In the case of `COc1ccc2nc(N[C@H]3C[C@H](N4C(=O)C(C)(C)c5nccnc54)C3)sc2c1` [Example 171, 5-(trans-3-((6-methoxybenzo[d]thiazole-2-yl)amino)cyclobutyl)-7,7-dimethyl-5H-pyrrolo[2,3-b]pyrazin-6(7 H)-one] it was 4.16 nM; in that of `Cn1c(=O)n([C@H]2C[C@H](Nc3nc4cccnc4s3)C2)c2ncccc21` [Example 172, 1-methyl-3-(trans-3-(thiazolo[-5,4-b]pyridin-2-ylamino)cyclobutyl)-1H-imidazo[4,5-b]pyridin-2(3 H)-one], 2.15 nM; in that of `CC1(C)C(=O)N([C@H]2C[C@H](Nc3nc4cccnc4s3)C2)c2nccnc21` [Example 173, 7,7-dimethyl-5-(trans-3-(thiazolo[5,4-b]pyridin-2-ylamino)cyclobutyl)-5H-pyrrolo[2,3-b]pyrazin-6(7H)-one], 1.49 nM.
The molecule `O=c1n(C2CC2)c2nccnc2n1[C@H]1C[C@H](Nc2ncc3ccc(F)cc3n2)C1` [Example 174] displayed an IC50 of 0.896 nM.
On to `CC1(C)C(=O)N([C@H]2C[C@H](Nc3ncc4ccc(F)cc4n3)C2)c2nccnc21` [Example 175, 5-(trans-3-((7-fluoroquinazolin-2-yl)amino)cyclobutyl)-7,7-dimethyl-5H-pyrrolo[2,3-b]lpyrazin-6(7 H)-one], for which the IC50 turned out to be 18.4 nM.
The result for `O=c1n(C2CC2)c2nccnc2n1[C@H]1C[C@H](Nc2nc3ccc(F)cc3o2)C1` [Example 176, 1-cyclopropyl-3-(trans-3-((6-fluorobenzo[d]oxazol-2-yl)amino)cyclobutyl)-1H-imidazo[4,5-b]pyrazin-2(3 H)-one] reads 7.75 nM; that for `CC1(C)C(=O)N([C@H]2C[C@H](Nc3nc4ccc(F)cc4o3)C2)c2nccnc21` [Example 177, 5-(trans-3-((6fluorobenzo[d]oxazol-2-yl)amino)cyclobutyl)-7,7-dimethyl-5H-pyrrolo[2,3-b]pyrazin-6(7 H)-one], 2.82 nM; that for `O=c1n(C2CC2)c2nccnc2n1[C@H]1C[C@H](Nc2nc3cccnc3s2)C1` [Example 178, 1-cyclopropyl-3-(trans-3-(thiazolo[5,4-b]pyridin-2-ylamino)cyclobutyl)-1H-imidazo[4,5-b]pyrazin-2(3 H)-one], 2.22 nM.
`CC1(C)C(=O)N([C@H]2C[C@H](Nc3ncc4ccccc4n3)C2)c2nccnc21` [Example 179, 7,7-dimethyl-5-(trans-3-(quinazolin-2-ylamino)cyclobutyl)-5H-pyrrolo[2,3-b]pyrazin-6(7 H)-one] returned an IC50 of 2.01 nM.
The result for `O=C1COc2cccnc2N1[C@H]1C[C@H](Nc2nc3ccccc3s2)C1` [Example 182, 4-(trans-3-(benzo[d]thiazol-2-ylamino)cyclobutyl)-2H-pyrido[3,2-b][1,4]oxazin-3(4H)-one] reads more than 9750 nM; that for `O=c1n(C2CC2)c2cccnc2n1[C@H]1C[C@H](Nc2ncc3ccccc3n2)C1` [Example 184, 1-cyclopropyl-3-(trans-3-(quinazolin-2-ylamino)cyclobutyl)-1H-imidazo[4,5-b]pyridin-2(3H)-one], 34.7 nM.
The result for `O=c1n(C2CC2)c2cccnc2n1[C@H]1C[C@H](Nc2nc3cc(F)ccc3s2)C1` [Example 185, 1-cyclopropyl-3-(trans-3-((5-fluorobenzo[d]thiazol-2-yl)amino)cyclobutyl)-1H-imidazo[4,5-b]pyridin-2(3H)-one] reads 0.839 nM; that for `O=c1n(C2CC2)c2cccnc2n1[C@H]1C[C@H](Nc2nc3ccc(F)cc3s2)C1` [Example 186, 1-cyclopropyl-3-(trans-3-((6-fluorobenzo[d]thiazol-2-yl)amino)cyclobutyl)-1H-imidazo[4,5-b]pyridin-2(3H)-one], 0.669 nM; that for `CC1(C)C(=O)N(C2CC(Nc3ccc4ccccc4n3)C2)c2nccnc21` (stereo not drawn) [Example 187, 7,7-dimethyl-5-(3-(quinolin-2-ylamino)cyclobutyl)-5H-pyrrolo[2,3-b]pyrazin-6(7 H)-one], 1.06 nM.
In the case of `CC1(C)C(=O)N(C2CCN(c3ncc4ccccc4n3)CC2)c2ncccc21` [Example 188, 3,3-dimethyl-1-(1-(quinazolin-2-yl)piperidin-4-yl)-1H-pyrrolo[2,3-b]pyridin-2(3 H)-one] it was 0.127 nM; in that of `CC1(C)C(=O)N(C2CCN(c3nc4ccccc4s3)CC2)c2ncccc21` [Example 189, 1-(1-(benzo[d]thiazol-2-yl)piperidin-4-yl)-3,3-dimethyl-1H-pyrrolo[2,3-b]pyridin-2(3 H)-one], 1.99 nM.
`CC1(C)C(=O)N(C2CCN(c3ccc4ccccc4n3)CC2)c2ncccc21` [Example 190, 3,3-dimethyl-1-(1-(quinolin-2-yl)piperidin-4-yl)-1H-pyrrolo[2,3-b]pyridin-2(3 H)-one]: 0.695 nM corresponded to half-maximal inhibition (IC50).
In the case of `CC1(C)C(=O)N(C2CCN(c3nc4ccc(F)cc4s3)CC2)c2ncccc21` [Example 191, 1-(1-(6-fluorobenzo[d]thiazol-2-yl)piperidin-4-yl)-3,3-dimethyl-1H-pyrrolo[2,3-b]pyridin-2(3 H)-one] it was 3.46 nM; in that of `CC1(C)C(=O)N([C@H]2C[C@H](Nc3ccc4cc(F)ccc4n3)C2)c2nccnc21` [Example 192], 14.8 nM.
The result for `CC1(C)C(=O)N(C2CCN(c3ccc4ccc(F)cc4n3)CC2)c2ncccc21` [Example 193, 1-(1-(7-fluoroquinolin-2-yl)piperidin-4-yl)-3,3-dimethyl-1H-pyrrolo[2,3-b]pyridin-2(3 H)-one] reads 2.1 nM; that for `CC1(C)C(=O)N(C2CCN(c3ccc4cc(F)ccc4n3)CC2)c2ncccc21` [Example 194, 1-(1-(6-fluoroquinolin-2-yl)piperidin-4-yl)-3,3-dimethyl-1H-pyrrolo[2,3-b]pyridin-2(3 H)-one], 15.1 nM.
For the molecule `CC1(C)C(=O)Nc2nc([C@H]3C[C@H](Nc4ccc5ccc(F)cc5n4)C3)cnc21` [Example 195, 3-(trans-3-((7-fluoroquinolin-2-yl)amino)cyclobutyl)-7,7-dimethyl-5H-pyrrolo[2,3-b]pyrazin-6(7 H)-one], the IC50 was 0.938 nM.
On to `Cn1c(=O)n([C@H]2C[C@H](Nc3nc4ccccc4o3)C2)c2ncc(F)cc21` [Example 196, 3-(Trans-3-(benzo[d]oxazol-2-ylamino)cyclobutyl)-6-fluoro-1-methyl-1H-imidazo[4,5-b]pyridin-2(3 H)-one], for which the IC50 is 4.2 nM.
In the case of `CC1(C)C(=O)N([C@H]2C[C@H](Oc3nc4ccccc4s3)C2)c2nccnc21` [Example 197, 5-(trans-3-(benzo[d]thiazol-2-yloxy)cyclobutyl)-7,7-dimethyl-5H-pyrrolo[2,3-b]pyrazin-6(7H)-one] it was 1.77 nM; in that of `CC1(C)C(=O)N(C2CCN(c3nc4ccccc4s3)CC2)c2nccnc21` [Example 198, 5-(1-(benzo[d]thiazol-2-yl)piperidin-4-yl)-7,7-dimethyl-5H-pyrrolo[2,3-b]pyrazin-6(7H)-one], 2.36 nM; in that of `CC1(C)C(=O)N(C2CCN(c3ccc4cc(F)ccc4n3)CC2)c2nccnc21` [Example 199, 5-(1-(6-fluoroquinolin-2-yl)piperidin-4-yl)-7,7-dimethyl-5H-pyrrolo[2,3-b]pyrazin-6(7H)-one], 15.1 nM.
The result for `CC1(C)C(=O)N(C2CCN(c3ncc4ccc(Cl)cc4n3)CC2)c2nccnc21` [Example 200, 5-(1-(7-chloroquinazolin-2-yl)piperidin-4-yl)-7,7-dimethyl-5H-pyrrolo[2,3-b]pyrazin-6(7H)-one] reads 86.3 nM.
The result for `CC1(C)C(=O)N(C2CCN(c3ncc4cc(F)ccc4n3)CC2)c2nccnc21` [Example 201, 5-(1-(6-fluoroquinazolin-2-yl)piperidin-4-yl)-7,7-dimethyl-5H-pyrrolo[2,3-b]pyrazin-6(7H)-one] reads 3.48 nM; that for `CC1(C)C(=O)N(C2CCN(c3nc4ccc(C(F)(F)F)cc4s3)CC2)c2nccnc21` [Example 202, 7,7-dimethyl-5-(1-(6-(trifluoromethyl)benzo[d]thiazol-2-yl)piperidin-4-yl)-5H-pyrrolo[2,3-b]pyrazin-6(7H)-one], 68.8 nM.
Regarding `Cc1csc(N[C@H]2C[C@H](N3C(=O)C(C)(C)c4cccnc43)C2)n1` [Example 203, 3,3-dimethyl-1-(trans-3-((4-methylthiazol-2-yl)amino)cyclobutyl)-1H-pyrrolo[2,3-b]pyridin-2(3H)-one], the midpoint of inhibition, the IC50, lay at 109 nM.
In the case of `CC1(C)C(=O)N([C@H]2C[C@H](Nc3ncc(-c4ccccc4)s3)C2)c2ncccc21` [Example 204, 3,3-dimethyl-1-(trans-3-((5-phenylthiazol-2-yl)amino)cyclobutyl)-1H-pyrrolo[2,3-b]pyridin-2(3H)-one] it was 2910 nM; in that of `Cc1cnc(N[C@H]2C[C@H](N3C(=O)C(C)(C)c4cccnc43)C2)s1` [Example 205, 3,3-dimethyl-1-(trans-3-((5-methylthiazol-2-yl)amino)cyclobutyl)-1H-pyrrolo[2,3-b]pyridin-2(3H)-one], 13.2 nM; in that of `Cn1c(=O)n([C@H]2C[C@H](Nc3ncc4ccccc4n3)C2)c2ncc(F)cc21` [Example 206, 6-fluoro-1-methyl-3-(trans-3-(quinazolin-2-ylamino)cyclobutyl)-1H-imidazo[4,5-b]pyridin-2(3H)-one], 7.65 nM.
Turning to `CC1(C)C(=O)N([C@H]2C[C@H](Nc3ccc(Br)cn3)C2)c2nccnc21` [Example 207, 5-(trans-3-((5-bromopyridin-2-yl)amino)cyclobutyl)-7,7-dimethyl-5H-pyrrolo[2,3-b]pyrazin-6(7 H)-one], 2.39 nM corresponded to half-maximal inhibition (IC50).
